The record followed here is PMC9856672, “SGC-CAMKK2-1: A Chemical Probe for CAMKK2” (Cells, 2023).

The structures appear in SMILES notation.

Experiment [1] addresses T1, CDK9 (Homo sapiens, UniProt P50750).
T1 construct: purchased Eurofins DiscoverX KINOMEscan
As to the kind of experiment: KINOMEscan 1 μM, CDK9. Format: binding. The conditions noted are these: 1000 nM; Entrez CDK9; read-out: Percent Control. The source says: (§1) Supplement cells-12-00287-s001.zip/File S2. KinomeScan data for the CAMKK2 probe and negative control.xlsx, sheet "SGC-CAMKK2-1" | column: Percent Control

For experiment [2], the target named is T2, FLT3(D835Y) (Homo sapiens, UniProt P36888, D835Y).
T2 construct: purchased Eurofins DiscoverX KINOMEscan
As to the kind of experiment: KINOMEscan 1 μM, FLT3(D835Y). The class given is binding. The conditions noted are these: 1000 nM; Entrez FLT3; read-out: Percent Control.
From the text: as §1

Experiment [3] deals with T3, TAK1 (Homo sapiens, UniProt O43318).
T3 construct: purchased Eurofins DiscoverX KINOMEscan
T3 sequence (O43318 whole entry): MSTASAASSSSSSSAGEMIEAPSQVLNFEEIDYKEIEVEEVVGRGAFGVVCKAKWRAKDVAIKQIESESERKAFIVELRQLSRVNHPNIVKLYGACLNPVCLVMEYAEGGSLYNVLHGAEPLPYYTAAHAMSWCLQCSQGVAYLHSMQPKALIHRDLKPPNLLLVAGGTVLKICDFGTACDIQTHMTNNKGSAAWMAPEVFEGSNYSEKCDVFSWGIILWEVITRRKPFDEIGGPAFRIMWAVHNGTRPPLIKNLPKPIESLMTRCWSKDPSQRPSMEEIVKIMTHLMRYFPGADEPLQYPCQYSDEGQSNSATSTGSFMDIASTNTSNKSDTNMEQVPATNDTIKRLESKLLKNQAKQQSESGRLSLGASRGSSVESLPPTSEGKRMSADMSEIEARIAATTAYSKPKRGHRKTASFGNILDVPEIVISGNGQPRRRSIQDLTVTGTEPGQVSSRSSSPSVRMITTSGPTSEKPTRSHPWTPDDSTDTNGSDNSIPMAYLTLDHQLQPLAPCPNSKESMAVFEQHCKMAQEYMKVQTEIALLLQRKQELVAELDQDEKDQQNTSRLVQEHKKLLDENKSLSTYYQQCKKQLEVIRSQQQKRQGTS
Description: KINOMEscan 1 μM, TAK1. Format: binding. To be noted: 1000 nM; Entrez MAP3K7; read-out: Percent Control.
From the text: as §1

For experiment [4], the target named is T4, PIM3 (Homo sapiens, UniProt Q86V86).
T4 construct: purchased Eurofins DiscoverX KINOMEscan
As to the kind of experiment: KINOMEscan 1 μM, PIM3. Format: binding. The conditions noted are these: 1000 nM; Entrez PIM3; read-out: Percent Control.
From the text: as §1

In experiment [5] the target is T5, EPHA4 (Homo sapiens, UniProt P54764).
T5 construct: purchased Eurofins DiscoverX KINOMEscan
As to the kind of experiment: KINOMEscan 1 μM, EPHA4. The class given is binding. To be noted: 1000 nM; Entrez EPHA4; read-out: Percent Control.
From the text: as §1

The target in experiment [6] is T6, PIM1 (Homo sapiens, UniProt P11309).
T6 construct: purchased Eurofins DiscoverX KINOMEscan
As to the kind of experiment: KINOMEscan 1 μM, PIM1. The class given is binding. The conditions noted are these: 1000 nM; Entrez PIM1; read-out: Percent Control.
From the text: as §1

The target of experiment [7] is T7, CDKL2 (Homo sapiens, UniProt Q92772).
T7 construct: purchased Eurofins DiscoverX KINOMEscan
T7 sequence (Q92772 whole entry): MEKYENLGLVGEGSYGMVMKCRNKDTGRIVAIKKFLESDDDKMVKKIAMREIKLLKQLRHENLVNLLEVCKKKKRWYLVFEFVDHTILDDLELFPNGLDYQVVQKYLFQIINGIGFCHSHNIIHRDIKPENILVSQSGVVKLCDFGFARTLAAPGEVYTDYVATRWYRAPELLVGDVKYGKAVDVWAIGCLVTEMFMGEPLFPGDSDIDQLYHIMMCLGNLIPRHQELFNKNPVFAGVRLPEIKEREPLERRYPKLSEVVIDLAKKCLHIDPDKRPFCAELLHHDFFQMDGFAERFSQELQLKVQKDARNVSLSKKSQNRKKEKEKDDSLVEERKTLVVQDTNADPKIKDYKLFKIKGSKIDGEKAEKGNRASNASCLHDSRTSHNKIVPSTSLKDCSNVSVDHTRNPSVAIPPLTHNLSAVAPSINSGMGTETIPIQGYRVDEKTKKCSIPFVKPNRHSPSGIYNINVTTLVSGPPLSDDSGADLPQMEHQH
Description: KINOMEscan 1 μM, CDKL2. The class given is binding. To be noted: 1000 nM; Entrez CDKL2; read-out: Percent Control.
From the text: as §1

In experiment [8] the target is T8, PIK3CA(C420R) (Homo sapiens, UniProt P42336, C420R).
T8 construct: purchased Eurofins DiscoverX KINOMEscan
Description: DiscoverX KINOMEscan binding assay at 1 μM, PIK3CA(C420R). To be noted: Compound Concentration 1000 nM, read-out: Percent Control.
From the text: as §1

Experiment [9] has as its target T9, JAK1(JH1domain-catalytic) (Homo sapiens, UniProt P23458).
T9 construct: JAK1(JH1domain-catalytic); purchased Eurofins DiscoverX KINOMEscan
Description: KINOMEscan 1 μM, JAK1(JH1domain-catalytic). Format: binding. To be noted: 1000 nM; Entrez JAK1; read-out: Percent Control.
From the text: as §1

The target of experiment [10] is T10, NIK (Homo sapiens, UniProt Q99558).
T10 construct: purchased Eurofins DiscoverX KINOMEscan
As to the kind of experiment: KINOMEscan 1 μM, NIK. The class given is binding. The conditions noted are these: 1000 nM; Entrez MAP3K14; read-out: Percent Control.
From the text: as §1

Experiment [11] deals with T11, PLK3 (Homo sapiens, UniProt Q9H4B4).
T11 construct: purchased Eurofins DiscoverX KINOMEscan
As to the kind of experiment: DiscoverX KINOMEscan binding assay at 1 μM, PLK3. To be noted: Compound Concentration 1000 nM, read-out: Percent Control.
From the text: as §1

In experiment [12] the target is T12, EGFR(G719S) (Homo sapiens, UniProt P00533, G719S).
T12 construct: purchased Eurofins DiscoverX KINOMEscan
As to the kind of experiment: KINOMEscan 1 μM, EGFR(G719S). The class given is binding. To be noted: 1000 nM; Entrez EGFR; read-out: Percent Control.
From the text: as §1

Experiment [13] deals with T13, GSK3B (Homo sapiens, UniProt P49841).
T13 construct: purchased Eurofins DiscoverX KINOMEscan
As to the kind of experiment: KINOMEscan 1 μM, GSK3B. To be noted: 1000 nM; Entrez GSK3B; read-out: Percent Control. Format: binding.
From the text: as §1

In experiment [14] the target is T14, CAMK4 (Homo sapiens, UniProt Q16566).
T14 construct: purchased Eurofins DiscoverX KINOMEscan
Description: KINOMEscan 1 μM, CAMK4. The class given is binding. The conditions noted are these: 1000 nM; Entrez CAMK4; read-out: Percent Control.
From the text: as §1

In experiment [15] the target is T15, NEK4 (Homo sapiens, UniProt P51957).
T15 construct: purchased Eurofins DiscoverX KINOMEscan
As to the kind of experiment: KINOMEscan 1 μM, NEK4. The class given is binding. The conditions noted are these: 1000 nM; Entrez NEK4; read-out: Percent Control.
From the text: as §1

In experiment [16] the target is T16, YSK4 (Homo sapiens, UniProt Q56UN5).
T16 construct: purchased Eurofins DiscoverX KINOMEscan
As to the kind of experiment: KINOMEscan 1 μM, YSK4. The conditions noted are these: 1000 nM; Entrez MAP3K19; read-out: Percent Control. Format: binding.
From the text: as §1

Experiment [17] concerns the target T17, TBK1 (Homo sapiens, UniProt Q9UHD2).
T17 construct: purchased Eurofins DiscoverX KINOMEscan
As to the kind of experiment: KINOMEscan at 1 μM, TBK1. The class given is binding. The conditions noted are these: 1000 nM, read-out: Percent Control. From the text: (§2) Supplement cells-12-00287-s001.zip/File S2. KinomeScan data for the CAMKK2 probe and negative control.xlsx, sheet "SGC-CAMKK2-1N" | column: Percent Control

Experiment [18] addresses T18, TNK2 (Homo sapiens, UniProt Q07912).
T18 construct: purchased Eurofins DiscoverX KINOMEscan
Description: KINOMEscan at 1 μM, TNK2. Format: binding. The conditions noted are these: 1000 nM, read-out: Percent Control.
From the text: as §2

The target of experiment [19] is T19, RIPK4 (Homo sapiens, UniProt P57078).
T19 construct: purchased Eurofins DiscoverX KINOMEscan
Description: KINOMEscan at 1 μM, RIPK4. Format: binding. The conditions noted are these: 1000 nM, read-out: Percent Control.
From the text: as §2

The target in experiment [20] is T20, NEK10 (Homo sapiens, UniProt Q6ZWH5).
T20 construct: purchased Eurofins DiscoverX KINOMEscan
Description: KINOMEscan at 1 μM, NEK10. Format: binding. The conditions noted are these: 1000 nM, read-out: Percent Control.
From the text: as §2

For experiment [21], the target named is T21, VEGFR2 (Homo sapiens, UniProt P35968).
T21 construct: purchased Eurofins DiscoverX KINOMEscan
T21 sequence (P35968 20-1356): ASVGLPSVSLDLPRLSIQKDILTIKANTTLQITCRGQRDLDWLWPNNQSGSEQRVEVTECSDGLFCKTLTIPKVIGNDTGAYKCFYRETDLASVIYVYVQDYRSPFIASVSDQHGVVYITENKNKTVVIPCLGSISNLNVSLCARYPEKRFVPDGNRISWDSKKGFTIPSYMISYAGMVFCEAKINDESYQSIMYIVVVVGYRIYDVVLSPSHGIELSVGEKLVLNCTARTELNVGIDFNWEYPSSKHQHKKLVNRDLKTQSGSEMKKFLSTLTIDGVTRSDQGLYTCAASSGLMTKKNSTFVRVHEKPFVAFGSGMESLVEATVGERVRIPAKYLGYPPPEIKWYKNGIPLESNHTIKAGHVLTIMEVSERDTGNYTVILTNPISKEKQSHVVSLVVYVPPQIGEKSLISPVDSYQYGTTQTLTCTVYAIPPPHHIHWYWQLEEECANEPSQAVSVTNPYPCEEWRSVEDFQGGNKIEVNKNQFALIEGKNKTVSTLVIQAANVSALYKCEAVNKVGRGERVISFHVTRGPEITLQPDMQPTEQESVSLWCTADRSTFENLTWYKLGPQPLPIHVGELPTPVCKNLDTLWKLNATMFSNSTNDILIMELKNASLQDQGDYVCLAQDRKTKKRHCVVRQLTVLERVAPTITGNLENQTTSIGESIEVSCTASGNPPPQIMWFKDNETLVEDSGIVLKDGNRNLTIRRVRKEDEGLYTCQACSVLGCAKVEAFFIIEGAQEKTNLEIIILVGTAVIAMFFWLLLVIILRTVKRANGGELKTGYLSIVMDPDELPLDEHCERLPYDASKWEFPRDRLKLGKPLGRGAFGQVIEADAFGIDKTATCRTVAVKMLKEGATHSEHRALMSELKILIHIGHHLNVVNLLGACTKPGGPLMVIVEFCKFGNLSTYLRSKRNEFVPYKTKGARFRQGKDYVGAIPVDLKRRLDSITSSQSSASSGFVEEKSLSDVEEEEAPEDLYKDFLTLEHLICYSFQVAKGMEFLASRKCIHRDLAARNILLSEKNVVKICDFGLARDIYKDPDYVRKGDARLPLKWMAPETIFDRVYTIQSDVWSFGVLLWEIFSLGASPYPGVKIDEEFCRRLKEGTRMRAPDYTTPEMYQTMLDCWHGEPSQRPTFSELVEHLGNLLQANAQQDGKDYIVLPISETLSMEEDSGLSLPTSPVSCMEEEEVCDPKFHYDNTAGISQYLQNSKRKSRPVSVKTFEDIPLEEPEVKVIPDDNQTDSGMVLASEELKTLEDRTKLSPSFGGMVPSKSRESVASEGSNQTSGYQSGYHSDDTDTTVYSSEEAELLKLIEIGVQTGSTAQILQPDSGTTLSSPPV
Description: KINOMEscan at 1 μM, VEGFR2. The class given is binding. To be noted: 1000 nM, read-out: Percent Control.
From the text: as §2

The target of experiment [22] is T22, GCN2(Kin.Dom.2,S808G) (Homo sapiens, UniProt Q9P2K8, S808G).
T22 construct: GCN2(Kin.Dom.2,S808G); purchased Eurofins DiscoverX KINOMEscan
T22 sequence (Q9P2K8 590-1001 S808G limits assumed): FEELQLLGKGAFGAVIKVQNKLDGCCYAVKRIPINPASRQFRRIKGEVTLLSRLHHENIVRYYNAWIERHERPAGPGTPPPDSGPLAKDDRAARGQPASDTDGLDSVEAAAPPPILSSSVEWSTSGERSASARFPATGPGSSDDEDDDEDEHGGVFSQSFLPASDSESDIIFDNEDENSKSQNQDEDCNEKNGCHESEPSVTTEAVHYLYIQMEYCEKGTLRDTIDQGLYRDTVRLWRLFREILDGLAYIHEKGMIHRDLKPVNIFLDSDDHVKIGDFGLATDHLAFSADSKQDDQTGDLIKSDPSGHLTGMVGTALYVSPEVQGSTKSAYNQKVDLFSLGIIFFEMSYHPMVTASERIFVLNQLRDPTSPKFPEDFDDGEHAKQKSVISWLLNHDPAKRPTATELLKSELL
Description: KINOMEscan binding assay at 1 μM, GCN2(Kin.Dom.2,S808G). To be noted: Compound Concentration 1000 nM; read-out: Percent Control.
From the text: as §2

Experiment [23] concerns the target T23, AMPK-alpha1 (Homo sapiens, UniProt Q13131).
T23 construct: purchased Eurofins DiscoverX KINOMEscan
Description: KINOMEscan at 1 μM, AMPK-alpha1. The class given is binding. To be noted: 1000 nM, read-out: Percent Control.
From the text: as §2

Experiment [24] concerns the target T24, PDPK1 (Homo sapiens, UniProt O15530).
T24 construct: purchased Eurofins DiscoverX KINOMEscan
Description: KINOMEscan binding assay at 1 μM, PDPK1. To be noted: Compound Concentration 1000 nM; read-out: Percent Control.
From the text: as §2

The target of experiment [25] is T25, PFTK1 (Homo sapiens, UniProt O94921).
T25 construct: purchased Eurofins DiscoverX KINOMEscan
As to the kind of experiment: KINOMEscan binding assay at 1 μM, PFTK1. To be noted: Compound Concentration 1000 nM; read-out: Percent Control.
From the text: as §2

For experiment [26], the target named is T26, AKT3 (Homo sapiens, UniProt Q9Y243).
T26 construct: purchased Eurofins DiscoverX KINOMEscan
As to the kind of experiment: KINOMEscan at 1 μM, AKT3. The class given is binding. The conditions noted are these: 1000 nM, read-out: Percent Control.
From the text: as §2

For experiment [27], the target named is T27, RIPK1 (Homo sapiens, UniProt Q13546).
T27 construct: purchased Eurofins DiscoverX KINOMEscan
As to the kind of experiment: KINOMEscan at 1 μM, RIPK1. Format: binding. To be noted: 1000 nM, read-out: Percent Control.
From the text: as §2

The target of experiment [28] is T28, AURKC (Homo sapiens, UniProt Q9UQB9).
T28 construct: purchased Eurofins DiscoverX KINOMEscan
Description: KINOMEscan at 1 μM, AURKC. To be noted: 1000 nM, read-out: Percent Control. Format: binding.
From the text: as §2

Experiment [29] deals with T29, SGK3 (Homo sapiens, UniProt Q96BR1).
T29 construct: purchased Eurofins DiscoverX KINOMEscan
T29 sequence (Q96BR1 whole entry): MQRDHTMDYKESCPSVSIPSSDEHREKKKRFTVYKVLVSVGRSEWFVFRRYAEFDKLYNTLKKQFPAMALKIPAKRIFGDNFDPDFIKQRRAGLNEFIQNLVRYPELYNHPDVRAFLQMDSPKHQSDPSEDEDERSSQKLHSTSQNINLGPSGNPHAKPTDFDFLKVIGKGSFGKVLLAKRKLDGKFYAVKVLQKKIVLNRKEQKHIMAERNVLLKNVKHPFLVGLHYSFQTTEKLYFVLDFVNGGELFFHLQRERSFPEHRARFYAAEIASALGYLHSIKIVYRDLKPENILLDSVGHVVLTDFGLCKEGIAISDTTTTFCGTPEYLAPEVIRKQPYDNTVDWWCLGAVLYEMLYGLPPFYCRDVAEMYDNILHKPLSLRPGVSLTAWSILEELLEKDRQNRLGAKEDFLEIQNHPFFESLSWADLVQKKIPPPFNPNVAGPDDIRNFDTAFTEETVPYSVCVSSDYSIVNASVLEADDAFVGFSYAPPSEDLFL
Description: KINOMEscan binding assay at 1 μM, SGK3. To be noted: Compound Concentration 1000 nM; read-out: Percent Control.
From the text: as §2

The target of experiment [30] is T30, PKNB(M.tuberculosis) (Mycobacterium tuberculosis, UniProt P9WI81).
T30 construct: purchased Eurofins DiscoverX KINOMEscan
As to the kind of experiment: KINOMEscan at 1 μM, PKNB(M.tuberculosis). The class given is binding. The conditions noted are these: 1000 nM, read-out: Percent Control.
From the text: as §2

Experiment [31] has as its target T31, RPS6KA4(Kin.Dom.1-N-terminal) (Homo sapiens, UniProt O75676).
T31 construct: RPS6KA4(Kin.Dom.1-N-terminal); purchased Eurofins DiscoverX KINOMEscan
As to the kind of experiment: KINOMEscan binding assay at 1 μM, RPS6KA4(Kin.Dom.1-N-terminal). The conditions noted are these: Compound Concentration 1000 nM; read-out: Percent Control.
From the text: as §2

Experiment [32] deals with T32, ERN1 (Homo sapiens, UniProt O75460).
T32 construct: purchased Eurofins DiscoverX KINOMEscan
As to the kind of experiment: KINOMEscan at 1 μM, ERN1. The class given is binding. The conditions noted are these: 1000 nM, read-out: Percent Control.
From the text: as §2

The target of experiment [33] is T33, RIOK2 (Homo sapiens, UniProt Q9BVS4).
T33 construct: purchased Eurofins DiscoverX KINOMEscan
T33 sequence (Q9BVS4 whole entry): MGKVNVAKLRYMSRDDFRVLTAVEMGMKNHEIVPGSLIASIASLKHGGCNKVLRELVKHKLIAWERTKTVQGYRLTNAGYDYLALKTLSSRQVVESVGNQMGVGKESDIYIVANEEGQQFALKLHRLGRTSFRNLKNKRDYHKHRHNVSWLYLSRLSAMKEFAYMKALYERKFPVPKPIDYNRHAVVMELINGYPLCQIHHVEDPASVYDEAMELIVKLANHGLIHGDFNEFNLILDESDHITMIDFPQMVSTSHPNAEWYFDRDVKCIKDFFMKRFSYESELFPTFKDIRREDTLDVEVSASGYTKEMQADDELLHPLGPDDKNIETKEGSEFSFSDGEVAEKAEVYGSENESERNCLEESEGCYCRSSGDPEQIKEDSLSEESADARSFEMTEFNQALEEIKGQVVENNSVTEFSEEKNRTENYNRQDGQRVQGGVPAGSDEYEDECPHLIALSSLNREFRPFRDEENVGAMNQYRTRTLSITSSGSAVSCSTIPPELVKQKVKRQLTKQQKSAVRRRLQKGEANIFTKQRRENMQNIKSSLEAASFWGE
Description: KINOMEscan at 1 μM, RIOK2. Format: binding. The conditions noted are these: 1000 nM, read-out: Percent Control.
From the text: as §2

T9 sequence (P23458 854-1154 limits assumed): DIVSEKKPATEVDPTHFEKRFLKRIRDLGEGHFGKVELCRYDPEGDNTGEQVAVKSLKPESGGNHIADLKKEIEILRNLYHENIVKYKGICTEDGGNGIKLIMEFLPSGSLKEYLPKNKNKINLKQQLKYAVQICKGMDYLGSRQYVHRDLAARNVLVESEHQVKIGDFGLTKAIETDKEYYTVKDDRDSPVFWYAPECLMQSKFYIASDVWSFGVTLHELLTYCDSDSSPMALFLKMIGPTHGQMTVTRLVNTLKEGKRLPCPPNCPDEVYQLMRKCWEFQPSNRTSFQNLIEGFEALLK
T24 sequence (O15530 whole entry): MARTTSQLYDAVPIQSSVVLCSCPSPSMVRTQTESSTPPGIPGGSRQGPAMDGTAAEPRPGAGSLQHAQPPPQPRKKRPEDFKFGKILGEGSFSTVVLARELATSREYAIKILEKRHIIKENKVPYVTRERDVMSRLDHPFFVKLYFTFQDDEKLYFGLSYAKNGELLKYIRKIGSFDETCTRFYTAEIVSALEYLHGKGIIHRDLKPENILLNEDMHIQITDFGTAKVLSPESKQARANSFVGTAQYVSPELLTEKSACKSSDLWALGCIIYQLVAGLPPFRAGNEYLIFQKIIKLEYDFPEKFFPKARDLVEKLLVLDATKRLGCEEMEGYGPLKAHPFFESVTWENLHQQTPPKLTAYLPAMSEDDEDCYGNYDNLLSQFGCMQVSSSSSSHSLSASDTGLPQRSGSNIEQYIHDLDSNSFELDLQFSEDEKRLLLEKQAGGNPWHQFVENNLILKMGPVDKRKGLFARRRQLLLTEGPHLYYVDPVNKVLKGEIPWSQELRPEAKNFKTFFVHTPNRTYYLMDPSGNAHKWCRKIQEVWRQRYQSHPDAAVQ

Consider `Cc1cccc(-c2cnc3occ(-c4ccc(C(=O)O)c(C5CCCC5)c4)c3c2)c1` [SGC-CAMKK2-1 (YL-36)], for which the remaining binding at 1 µM amounted to 93% in experiment [1]; 89% in [2]; 91% in experiment [3]; 77% in [4]; 90% in experiment [5]; 76% in [6]. Also, the remaining binding at 1 µM in [7] worked out at 96%; in experiment [8] it was 100%; in experiment [9] it was 85%; in experiment [10], 89%; in experiment [11] it was 100%; in experiment [12], 77%. Moreover, the remaining binding at 1 µM worked out at 100% in experiment [13], 100% in [14], 100% in [15] and 85% in experiment [16].

For the molecule `O=C(O)c1ccc(-c2coc3ncc(-c4ccccc4)cc23)cc1Cl` [SGC-CAMKK2-1N (UNC-YL-83)], the remaining binding at 1 µM in experiment [17] came out at 64%; in [18] it was 94%; in [19], 70%; in experiment [20], 82%; in experiment [21], 90%; in [22], 100%. For the same molecule, the remaining binding at 1 µM in experiment [23] worked out at 100%; in experiment [24] it was 100%; in experiment [25] it was 100%; in experiment [26], 95%; in experiment [27], 90%; in [28], 90%. Also, the remaining binding at 1 µM worked out at 100% in [29]; 83% in experiment [30]; 100% in experiment [31]; 76% in [32]; 93% in [33].
